One series deals with Rattus norvegicus. The following applies: acute; oral; mortality.
The test system of a further series is Coturnix japonica. The following applies: reproduction developmental; duration: 6 weeks.
Another series concerns Cyprinus carpio. The settings on record: acute; duration: 96 hours; mortality.
For the next series, the system named is Apis mellifera. The settings on record: acute; duration: 48 hours; dermal; mortality.
For another series, the system named is Daphnia magna. The settings on record: chronic/long-term; duration: 21 days; reproduction.
The subject of the next series is Homo sapiens. The settings on record: clinical; oral; capsule; clinical signs.
The next series relates to Landoltia sp. The following applies: chronic/long-term; duration: 14 days.
For another series, the system named is Colinus virginianus. The settings on record: oral; for LD50: acute, mortality.
The test system of the next series is Canidae. The following applies: oral, Dog Other.
The test system of the next series is Aphidius rhopalosiphi. The following applies: not reported; mortality.
In a further series the test system is Zea sp. The settings on record: chronic/long-term.
Another series concerns Anas platyrhynchos. The following applies: acute, oral, unspecified.
For series [1] the following is noted: reproductive.
Another series relates to Pimephales promelas. The following applies: chronic/long-term; duration: 34 days; reproduction.

By NOAEL is commonly meant the highest dose or exposure tested at which no adverse effect was seen. As to `O=P(O)(O)CCCl` [Ethephon], the LD50 with Rattus norvegicus is 1560 mg/kg; with Apis mellifera, greater than 100 µg/piece; in the series with Colinus virginianus (duration: 8 days, diet) it was greater than 450 mg/kg; in the series on Colinus virginianus it was 764 mg/kg; with Anas platyrhynchos (mortality), 1420 mg/kg. In addition, the NOEL in the series with Coturnix japonica is 159 mg/kg-day; with Colinus virginianus (short-term, duration: 8 days, diet), greater than 530 mg/kg-day; with Anas platyrhynchos, 450 mg/kg. The LC50 is greater than 60000 g/ha with Tagia sp. (acute, duration: 14 days, mortality) and greater than 100 µg/mL with Cyprinus carpio. In addition, the NOEC is no less than 200 mg/kg in the series on Tagia sp. (chronic/long-term, duration: 8 weeks, reproduction); 67 mg/L with Daphnia magna; less than 0.1 mg/L in the series on Landoltia sp.; 2580 g/ha in the series on Zea sp.; 43 mg/L in the series on Pimephales promelas. Besides, the no observed adverse effect level (NOAEL) is 0.5 mg/kg-day with Homo sapiens; 27 mg/kg-day in the series with Canidae (chronic, duration: 1 years, body weight); 6 mg/kg-day in the series on Canidae (short-term, duration: 28 days, clinical chemistry); 22.8 mg/kg-day in series [1]. In the series on Aphidius rhopalosiphi, this compound yielded an LEL of 480 g/ha.

The values above are taken from EPA's ToxValDB 9.5 (doi:10.2903/j.efsa.2009.174r).
